From article PMC8659250, “Adjusting the Structure of β-Cyclodextrin to Improve Complexation of Anthraquinone-Derived Drugs” (Molecules, 2021)
Structures can show the parent of a compound that is named as a salt. Where two headings read alike, the source gives them in different places.

Experiments:
[1] = Solubility of AQ2CA without cyclodextrins (UV-Vis); assay type: physicochemical; settings: 25 °C, thermodynamic from solid
From the text: (§1) Anthraquinone-2-carboxylic acid (AQ2CA) is a poorly water-soluble drug (SAQ2CA in water = 3.98 × 10^−5 M). […] An improvement in the aqueous solubility of AQ2CA would improve the biological availability of the drug. Such a drug solubilization effect was achieved via complexation using appropriate CD derivatives. The phase solubility method developed by Higuchi and Connors was employed to quantify the solubilization ability of cyclodextrins. The solubility values of AQ2CA in water, BR buffer at pH 7.4 (pH corresponding to the physiological conditions), and BR buffer at pH 3.0, with the addition of CDs was determined. The pH values characteristic for bodily fluids (pH 7.4) and for gastric juices (pH 3) were chosen for these measurements. […] According to the Higuchi and Connors classification, the phase solubility diagrams for anthraquinone-2-carboxylic acid with various cyclodextrin concentrations can be classified as AL type.
(§2) Solubility studies of anthraquinone-2-carboxylic acid with three different cyclodextrins were carried out according to the Higuchi and Connors procedure. The solutions of cyclodextrin in water and Britton–Robinson buffers (pH 7.4 and 5.5) were prepared in a concentration range of 0–3 mM. A constant amount of AQ2CA (3 mM) that exceeded its solubility was added into the cyclodextrin solution. Molar ratios of AQ2CA/CD were 1:0, 1:0.2, 1:0.4, 1:0.6, 1:0.8, and 1:1. Three samples of each molar ratio were prepared. The suspensions were shaken for 24 h at 25 °C, after which equilibrium was reached. After 24 h, the concentration of the dissolved drug was monitored by UV-Vis spectroscopy and plateaued; thus, the maximum dissolved drug was achieved. Subsequently, the samples were filtered using a 0.45 µm filter and appropriately diluted. The aliquots of solutions were assayed for AQ2CA again, by UV-Vis spectroscopy, in the 200–600 nm range with a maximum absorbance value for AQ2CA at 335 nm. […] The association constants of the inclusion complexes were determined using the following equation:(1) K1:1=Slope/S0(1−Slope) where K1:1 is the association constant and S0 is the solubility of AQ2CA in the absence of cyclodextrin. The slope was measured by UV-Vis spectroscopy from the initial straight-line part of the AQ2CA concentration vs. CD concentration plot. The uncertainty was determined as the standard deviation of the three values of the association constants obtained from three different repetitions of the given system.

[2] = Determination of pKa values of CD derivatives by UV-Vis spectroscopy; assay type: physicochemical; settings: Britton–Robinson buffer, pH range 2.7 to 9.5, triazole linker
From the text: Due to the fact that the triazole linker in CD derivatives contains a basic nitrogen atom that can be protonated at an acidic pH, we determined the value of pKa by UV-Vis spectroscopy. The spectra of βCDGAL, βCDLip, and βCDTriazol, at the pH range between 2.7 and 9.5, are presented on Figure 3. The dependence of the absorbance of the peak maximum at wavelengths in the range of 210–220 on the pH of the buffer is presented in the figures. According to the equation […] for equal concentrations of the protonated and deprotonated forms, pKa = pH; the pKa value, for all three derivatives containing the triazole linker, was determined to be 4.5.
The UV-Vis measurements were performed using an Agilent Technologies Cary 60 UV-Vis Spectrophotometer (Santa Clara, CA, USA). All UV-Vis spectra were measured using quartz cuvettes with a 1 cm optical path length. For pKa determination the 0.2 mg/mL concentration of βCDTriazole, βCDGAL or βCDLip in Britton–Robinson buffer were used.

[3] = Phase solubility diagrams (Higuchi and Connors) of AQ2CA with cyclodextrins; assay type: physicochemical; settings: for K1:1 (association constant, AQ2CA–cyclodextrin): phase solubility diagram, 25 °C; for Increase in solubility of AQ2CA (in words): pH 3.0
From the text: as §1
The association constant of the AQ2CA–cyclodextrin complex (1:1) was calculated from the linear plot of the phase solubility diagrams using Equation (1). The lines are started at the point of initial drug solubility, meaning, i.e., without the addition of cyclodextrin. The values of K1:1, as well as the solubility increase and correlation coefficients of the phase solubility diagrams, are presented in Table 1.
as §2, with “The solutions of cyclodextrin in water and Britton–Robinson buffers (pH 7.4 and 5.5) were prepared in a concentration range of 0–3 mM.” left out

[4] = cited from earlier work

Row | Compound | pKa [2] | K1:1 (association constant, AQ2CA–cyclodextrin) ([3]; Britton–Robinson buffer pH 3.0) [M⁻¹] | K1:1 (association constant, AQ2CA–cyclodextrin) ([3]; Britton–Robinson buffer pH 7.4) [M⁻¹] | K1:1 (association constant, AQ2CA–cyclodextrin) ([3]; water) [M⁻¹] | also measured
1 | O=C(O)c1ccc2c(c1)C(=O)c1ccccc1C2=O [AQ2CA, 9,10-dihydro-9,10-dioxo-2-anthracenecarboxylic acid] | – | – | – | – | solubility at 24 h ([1]; aqueous buffer, Britton–Robinson buffer pH 3.0, without CDs, read-out: Solubility of AQ2CA in Britton–Robinson buffer, pH 3.0): 1.43 µM; solubility at 24 h ([1]; aqueous buffer, Britton–Robinson buffer pH 3.0, read-out: Solubility in Britton–Robinson buffer, pH 3.0 without CDs): 0.36 µg/mL; solubility at 24 h ([1]; aqueous buffer, Britton–Robinson buffer pH 7.4, without CDs, read-out: Solubility of AQ2CA in Britton–Robinson buffer, pH 7.4): 1740 µM; solubility at 24 h ([1]; aqueous buffer, Britton–Robinson buffer pH 7.4, read-out: Solubility in Britton–Robinson buffer, pH 7.4 without CDs): 440 µg/mL; solubility at 24 h ([1]; water, without CDs, read-out: Solubility of AQ2CA in water): 39.8 µM; solubility at 24 h ([1]; water, water, read-out: Solubility in water without CDs): 10 µg/mL
2 | O=C(N[C@H]1C(O)O[C@H](CO)[C@H](O)[C@@H]1O)OCc1cn(C[C@H]2O[C@@H]3O[C@H]4[C@H](O)[C@@H](O)[C@@H](O[C@H]5[C@H](O)[C@@H](O)[C@@H](O[C@H]6[C@H](O)[C@@H](O)[C@@H](O[C@H]7[C@H](O)[C@@H](O)[C@@H](O[C@H]8[C@H](O)[C@@H](O)[C@@H](O[C@H]9[C@H](O)[C@@H](O)[C@@H](O[C@H]2[C@H](O)[C@H]3O)O[C@@H]9CO)O[C@@H]8CO)O[C@@H]7CO)O[C@@H]6CO)O[C@@H]5CO)O[C@@H]4CO)nn1 (stereo partly drawn) [βCDGAL] | 4.5 | 2760 ± 110 | 1300 ± 60 | 840 ± 45 | Increase in solubility of AQ2CA (in words) [3]: almost tenfold increase
3 | OC[C@H]1O[C@@H]2O[C@H]3[C@H](O)[C@@H](O)[C@@H](O[C@H]4[C@H](O)[C@@H](O)[C@@H](O[C@H]5[C@H](O)[C@@H](O)[C@@H](O[C@H]6[C@H](O)[C@@H](O)[C@@H](O[C@H]7[C@H](O)[C@@H](O)[C@@H](O[C@H]8[C@H](O)[C@@H](O)[C@@H](O[C@H]1[C@H](O)[C@H]2O)O[C@@H]8CO)O[C@@H]7CO)O[C@@H]6CO)O[C@@H]5CO)O[C@@H]4CO)O[C@@H]3CO [βCD, β-Cyclodextrin] | – | 1480 ± 180 | 350 ± 40 | 460 ± 45 | –
4 | CCCc1cn(C[C@H]2O[C@@H]3O[C@H]4[C@H](O)[C@@H](O)[C@@H](O[C@H]5[C@H](O)[C@@H](O)[C@@H](O[C@H]6[C@H](O)[C@@H](O)[C@@H](O[C@H]7[C@H](O)[C@@H](O)[C@@H](O[C@H]8[C@H](O)[C@@H](O)[C@@H](O[C@H]9[C@H](O)[C@@H](O)[C@@H](O[C@H]2[C@H](O)[C@H]3O)O[C@@H]9CO)O[C@@H]8CO)O[C@@H]7CO)O[C@@H]6CO)O[C@@H]5CO)O[C@@H]4CO)nn1 [βCDTriazol] | 4.5 | – | – | – | –
5 | O=C(CCCCC1CCSS1)OCc1cn(C[C@H]2O[C@@H]3O[C@H]4[C@H](O)[C@@H](O)[C@@H](O[C@H]5[C@H](O)[C@@H](O)[C@@H](O[C@H]6[C@H](O)[C@@H](O)[C@@H](O[C@H]7[C@H](O)[C@@H](O)[C@@H](O[C@H]8[C@H](O)[C@@H](O)[C@@H](O[C@H]9[C@H](O)[C@@H](O)[C@@H](O[C@H]2[C@H](O)[C@H]3O)O[C@@H]9CO)O[C@@H]8CO)O[C@@H]7CO)O[C@@H]6CO)O[C@@H]5CO)O[C@@H]4CO)nn1 (stereo partly drawn) [βCDLip] | 4.5 | 2520 ± 175 | 940 ± 25 | 800 ± 40 | Increase in solubility of AQ2CA (in words) [3]: almost tenfold increase
6 | COc1cccc2c1C(=O)c1c(O)c3c(c(O)c1C2=O)C[C@@](O)(C(C)=O)C[C@@H]3O[C@H]1C[C@H](N)[C@H](O)[C@H](C)O1 [DNR, daunorubicin] | – | – | – | – | pKa [4]: 7.48
7 | NC[C@H]1O[C@@H]2O[C@H]3[C@H](O)[C@@H](O)[C@@H](O[C@H]4[C@H](O)[C@@H](O)[C@@H](O[C@H]5[C@H](O)[C@@H](O)[C@@H](O[C@H]6[C@H](O)[C@@H](O)[C@@H](O[C@H]7[C@H](O)[C@@H](O)[C@@H](O[C@H]8[C@H](O)[C@@H](O)[C@@H](O[C@H]1[C@H](O)[C@H]2O)O[C@@H]8CO)O[C@@H]7CO)O[C@@H]6CO)O[C@@H]5CO)O[C@@H]4CO)O[C@@H]3CO [βCDamine, 6-monodeoxy-6-monoamino-β-cyclodextrin hydrochloride] | – | 2450 ± 200 | – | 280 ± 30 | pKa ([4]; amine derivative CD): 8.84
